Patent publication US20040266862A1, “Method of improving animal tissue quality by supplementing the animal diet with mixed tocotrienols” (priority 2003, published 2004)
Marks after values point to notes of the source that are not given here.

Test system: cattle
Experiment: 2002-03 cattle feed test: raw ribeye steak Hunter Lab color evaluation
Type: in vivo
Description: Applicants also assessed the effects of antioxidant supplementation on beef quality in an experiment in which ground beef and steaks from cattle fed one of four dietary treatments were compared. Forty steers (average weight 1082 lbs.) were blocked by weight (heavy or light) and assigned to eight outdoor group pens. Pens were randomly assigned within weight blocks to four dietary treatments (two pens per dietary treatment): control, 300 ppm gamma-tocopherol, 150 ppm MT or 300 ppm MT. As in the swine and poultry feed trials, the MT supplement was obtained commercially from Fuji Chemical Industries (U.S.A.) Inc. of Robbinsville, N.J., and contained 7.5% alpha-, 12.3% gamma- and 3.0% delta-tocotrienol for a total MT content of 22.8 wt %, as well as 7.2% alpha-tocopherol. The control diet was not supplemented with even the NRC (1996) recommended level of vitamin E (15 to 60 ppm).
The steers were fed rolled corn diets with added cottonseed hulls that contained little or no vitamin E. The corn grain used in this trial was more than two years old so that it would be largely depleted of vitamin E. The steers were gradually adapted to an 80% grain-based diet and fed the low vitamin E diet for over one month prior to the start of the dietary supplementation period. Steers then were fed their respective dietary treatments for 54 days, starting Dec. 18, 2002 and ending Feb. 10, 2003.
The dietary treatments were top-dressed onto the feed and mixed with the morning daily feed. The target level for feeding gamma-tocopherol was calculated to be 2 g per animal per day. Mineral oil was used as a carrier for the gamma-tocopherol. The two target amounts of mixed tocotrienols were equivalent to, or half of, the gamma tocopherol level. The MT compounds were diluted with cornmeal to supply the required amount of mixed tocotrienols.
On the day following delivery of the beef rib sections to Kansas State University, ribs were boned out, vacuum packaged, and held at approximately (2° C.) until thirteen days postmortem, at which time the ribs were faced at the 13th rib region. The ribs were cut into 2.54 cm thick ribeye steaks, one steak from each rib to be used for color appraisal under retail display conditions and one steak for sensory evaluation. The steaks for sensory evaluation were vacuum-packaged and frozen.
The ribeye steaks utilized for color evaluation were placed onto 17S foam trays with meat, fish, and poultry pads (Dri-Loc AC-50) and wrapped with polyvinyl chloride film. The packaged steaks were placed under simulated retail display at 34±3° F. under 1614 lux (150±5 foot candles) light intensity in open-top display cases. The cases were programmed to defrost twice daily at 12-hour intervals. Case temperature was monitored using temperature recorders. An eight-member trained panel assigned subjective color and discoloration scores on days 0, 1, 2, 3, 4, 5 and 7. Pre-storage color was evaluated on an eight point scale. Panelists evaluated post-13 day storage color using a five-point scale with 0.5 intervals. Minolta color measurements were taken on days 0 and 7 using a Hunter Lab MiniScan™ Spectrophotometer (1.25 inch diameter aperture).

## Cc1c(O)cc2c(c1C)O[C@](C)(CCC[C@H](C)CCC[C@H](C)CCCC(C)C)CC2 [GT, gamma-tocopherol]
300 ppm in diet
  Pre-display pH: 5.53
Display Day 0, 300 ppm in diet
  Hunter L: 41.35
  Hunter a: 32.82
  Hunter b: 25.33
Display Day 7, 300 ppm in diet
  Hunter L: 40.03^b
  Hunter a: 30.26^b
  Hunter b: 23.35^b
